Measurements reported in patent US9393271B2, “GHRH agonists for islet cell transplantation and function and the treatment of diabetes” (UNIVERSITY OF MIAMI, priority 2012, dated 2016).
Non-standard residues stand in square brackets, D forms with d. Residues, ends and D or L forms follow the SMILES beside them. No end group written: not given here. *: point of attachment. Phe(F5) = N[C@@H](Cc1c(F)c(F)c(F)c(F)c1F)C(=O)O; NMeY = CN[C@@H](Cc1ccc(O)cc1)C(=O)O; Agmatine = N=C(N)NCCCCN*; Nle = CCCC[C@H](N)C(=O)O; Orn = NCCC[C@H](N)C(=O)O; Abu = CC[C@H](N)C(=O)O; Ava = NCCCCC(=O)O; GABA = NCCCC(=O)O

Columns and labels:
[1] = target: T1, GHRH receptor (human pituitary membrane homogenates) (Homo sapiens, UniProt Q02643); assay: GHRH receptor binding, ligand competition with 125I-labeled JV-1-42 (Table 7); design: Normal human pituitaries were purchased from the National Hormone and Peptide Program; tissue National Hormone and Peptide Program (A. F. Parlow, Harbor-UCLA Medical Center, Torrance, Calif.); host or cells: normal human pituitary, membrane fraction / homogenate; details: JI-38 = 1
T1 sequence (Q02643 23-423): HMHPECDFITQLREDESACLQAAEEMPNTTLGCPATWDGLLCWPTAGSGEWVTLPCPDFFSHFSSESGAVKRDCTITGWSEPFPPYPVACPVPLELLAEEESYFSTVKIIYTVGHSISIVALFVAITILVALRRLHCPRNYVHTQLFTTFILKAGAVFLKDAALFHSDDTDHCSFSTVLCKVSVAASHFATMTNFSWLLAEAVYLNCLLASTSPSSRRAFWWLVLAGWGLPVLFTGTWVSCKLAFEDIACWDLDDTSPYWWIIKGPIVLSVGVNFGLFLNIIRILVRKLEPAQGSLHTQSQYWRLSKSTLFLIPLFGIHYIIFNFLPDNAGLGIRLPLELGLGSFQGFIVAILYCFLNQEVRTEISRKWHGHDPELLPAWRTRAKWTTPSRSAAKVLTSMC

[2] = system: GH level; assay: In vivo endocrine activity (GH release), subcutaneous administration; details: rat; for GH releasing potency relative to JI-38 (=1): s.c. injection
Protocol: Subcutaneous Administration. Adult male rats were used and anesthetized with pentobarbital (6 mg/100 g, b.w.), by i.p. injection. […] Blood samples were taken from the jugular vein 5, 15 and/or 30 minutes after the injection. The blood samples were centrifuged, plasma was removed and the GH level was measured by ELISA. The results are summarized in terms of potency in Table 9.

CCCC[C@H](NC(=O)[C@@H](NC(=O)[C@H](CC(=O)O)NC(=O)[C@H](CCC(N)=O)NC(=O)[C@H](CC(C)C)NC(=O)[C@H](CC(C)C)NC(=O)[C@H](CCCN)NC(=O)[C@H](CCCNC(=N)N)NC(=O)[C@H](C)NC(=O)[C@H](CO)NC(=O)[C@H](CC(C)C)NC(=O)[C@H](CCC(N)=O)NC(=O)[C@H](CC)NC(=O)[C@H](CC(C)C)NC(=O)[C@@H](NC(=O)[C@H](CCCN)NC(=O)[C@H](CCCNC(=N)N)NC(=O)[C@H](Cc1ccc(O)cc1)NC(=O)[C@H](CO)NC(=O)[C@H](CCC(N)=O)NC(=O)[C@@H](NC(=O)[C@H](Cc1ccccc1)NC(=O)[C@@H](NC(=O)[C@H](C)NC(=O)[C@H](CC(=O)O)NC(=O)[C@@H](C)NC(=O)[C@H](Cc1ccc(O)cc1)NC)[C@@H](C)CC)[C@@H](C)O)C(C)C)[C@@H](C)CC)C(=O)N[C@@H](CC(=O)O)C(=O)N[C@@H](CCCNC(=N)N)C(=O)NCCCCC(N)=O [Peptide P-22325, [N—Me-Tyr^1, Gln^8, Orn^12, Abu^15, Orn^21, Nle^27, Asp^28, Apa^30]hGHRH (1-30)NH2] (H-[NMeY][dA]DAIFTQSYR[Orn]VL[Abu]QLSAR[Orn]LLQDI[Nle]DR[Ava]-NH2)
Relative affinitiy (Binding potency) vs JI-38 [1]: 1.14 | GH releasing potency relative to JI-38 (=1) ([2]; 5 min after): 0.33 | GH releasing potency relative to JI-38 (=1) ([2]; 15 min after): 0.68 | GH releasing potency relative to JI-38 (=1) ([2]; 30 min after): 1.03

CCCC[C@H](NC(=O)[C@@H](NC(=O)[C@H](CC(=O)O)NC(=O)[C@H](CCC(N)=O)NC(=O)[C@H](CC(C)C)NC(=O)[C@H](CC(C)C)NC(=O)[C@H](CCCN)NC(=O)[C@H](CCCNC(=N)N)NC(=O)[C@H](C)NC(=O)[C@H](CO)NC(=O)[C@H](CC(C)C)NC(=O)[C@H](CCC(N)=O)NC(=O)[C@H](CC)NC(=O)[C@H](CC(C)C)NC(=O)[C@@H](NC(=O)[C@H](CCCN)NC(=O)[C@H](CCCNC(=N)N)NC(=O)[C@H](Cc1ccc(O)cc1)NC(=O)[C@H](CO)NC(=O)[C@H](CCC(N)=O)NC(=O)[C@@H](NC(=O)[C@H](Cc1ccccc1)NC(=O)[C@@H](NC(=O)[C@H](C)NC(=O)[C@H](CC(=O)O)NC(=O)[C@@H](C)NC(=O)[C@H](Cc1ccc(O)cc1)NC)[C@@H](C)CC)[C@@H](C)O)C(C)C)[C@@H](C)CC)C(=O)N[C@@H](CC(=O)O)C(=O)N[C@@H](CCCNC(=N)N)C(=O)NCCCCC(N)=O [Peptide P-22326, [N—Me-Tyr^1, D-Ala^2, Gln^8, Orn^12, Abu^15, Orn^21, Nle^27, Asp^28, Apa^30]hGHRH(1-30)NH2] (H-[NMeY][dA]DAIFTQSYR[Orn]VL[Abu]QLSAR[Orn]LLQDI[Nle]DR[Ava]-NH2)
Relative affinitiy (Binding potency) vs JI-38 [1]: 6.12 | Stimulation of growth hormone levels after s.c. administration (comparison in words) [2]: stimulated greater growth hormone levels than hGHRH or JI-38

CCCC[C@H](NC(=O)[C@@H](NC(=O)[C@H](CC(=O)O)NC(=O)[C@H](CCC(N)=O)NC(=O)[C@H](CC(C)C)NC(=O)[C@H](CC(C)C)NC(=O)[C@H](CCCN)NC(=O)[C@H](CCCNC(=N)N)NC(=O)[C@H](C)NC(=O)[C@H](CO)NC(=O)[C@H](CC(C)C)NC(=O)[C@H](CCC(N)=O)NC(=O)[C@H](CC)NC(=O)[C@H](CC(C)C)NC(=O)[C@@H](NC(=O)[C@H](CCCN)NC(=O)[C@H](CCCNC(=N)N)NC(=O)[C@H](Cc1ccc(O)cc1)NC(=O)[C@H](CO)NC(=O)[C@H](CC(N)=O)NC(=O)[C@@H](NC(=O)[C@H](Cc1ccccc1)NC(=O)[C@@H](NC(=O)[C@H](C)NC(=O)[C@H](CC(=O)O)NC(=O)[C@@H](C)NC(=O)[C@H](Cc1ccc(O)cc1)NC)[C@@H](C)CC)[C@@H](C)O)C(C)C)[C@@H](C)CC)C(=O)N[C@@H](CO)C(=O)N[C@@H](CCCNC(=N)N)C(=O)NCCCC(N)=O [Peptide P-25501, [N—Me-Tyr^1, D-Ala^2, Orn^12, Abu^15, Orn^21, Nle^27, Gab^30]hGHRH(1-30)NH2] (H-[NMeY][dA]DAIFTNSYR[Orn]VL[Abu]QLSAR[Orn]LLQDI[Nle]SR[GABA]-NH2)
Relative affinitiy (Binding potency) vs JI-38 [1]: 4.07 | Stimulation of growth hormone levels after s.c. administration (comparison in words) [2]: stimulated greater growth hormone levels than hGHRH or JI-38

CCCC[C@H](NC(=O)[C@@H](NC(=O)[C@H](CC(=O)O)NC(=O)[C@H](CCC(N)=O)NC(=O)[C@H](CC(C)C)NC(=O)[C@H](CC(C)C)NC(=O)[C@H](CCCN)NC(=O)[C@H](CCCNC(=N)N)NC(=O)[C@H](C)NC(=O)[C@H](CO)NC(=O)[C@H](CC(C)C)NC(=O)[C@H](CCC(N)=O)NC(=O)[C@H](CC)NC(=O)[C@H](CC(C)C)NC(=O)[C@@H](NC(=O)[C@H](CCCN)NC(=O)[C@H](CCCNC(=N)N)NC(=O)[C@H](Cc1ccc(O)cc1)NC(=O)[C@H](CO)NC(=O)[C@H](CC(N)=O)NC(=O)[C@@H](NC(=O)[C@H](Cc1c(F)c(F)c(F)c(F)c1F)NC(=O)[C@@H](NC(=O)[C@H](C)NC(=O)[C@H](CC(=O)O)NC(=O)[C@@H](C)NC(=O)[C@H](Cc1ccc(O)cc1)NC)[C@@H](C)CC)[C@@H](C)O)C(C)C)[C@@H](C)CC)C(=O)N[C@@H](CC(=O)O)C(=O)N[C@@H](CCCNC(=N)N)C(=O)NC [Peptide P-27404, [N—Me-Tyr^1, D-Ala^2, Fpa5^6, Orn^12, Abu^15, Orn^21, Nle^27, Asp^28]hGHRH(1-29)NH—CH3] (H-[NMeY][dA]DAI[Phe(F5)]TNSYR[Orn]VL[Abu]QLSAR[Orn]LLQDI[Nle]DR-NHMe)
Relative affinitiy (Binding potency) vs JI-38 [1]: 5.00 | Stimulation of growth hormone levels after s.c. administration (comparison in words) [2]: stimulated greater growth hormone levels than hGHRH or JI-38 | GH releasing potency relative to JI-38 (=1) ([2]; 15 min after): 2.07 | GH releasing potency relative to JI-38 (=1) ([2]; 30 min after): 1.47

CCCC[C@H](NC(=O)[C@@H](NC(=O)[C@H](CC(=O)O)NC(=O)[C@H](CCC(N)=O)NC(=O)[C@H](CC(C)C)NC(=O)[C@H](CC(C)C)NC(=O)[C@H](CCCN)NC(=O)[C@H](CCCNC(=N)N)NC(=O)[C@H](C)NC(=O)[C@H](CO)NC(=O)[C@H](CC(C)C)NC(=O)[C@H](CCC(N)=O)NC(=O)[C@H](CC)NC(=O)[C@H](CC(C)C)NC(=O)[C@@H](NC(=O)[C@H](CCCN)NC(=O)[C@H](CCCNC(=N)N)NC(=O)[C@H](Cc1ccc(O)cc1)NC(=O)[C@H](CO)NC(=O)[C@H](CCC(N)=O)NC(=O)[C@@H](NC(=O)[C@H](Cc1ccccc1)NC(=O)[C@@H](NC(=O)[C@H](C)NC(=O)[C@H](CC(=O)O)NC(=O)[C@@H](C)NC(=O)[C@H](Cc1ccc(O)cc1)NC)[C@@H](C)CC)[C@@H](C)O)C(C)C)[C@@H](C)CC)C(=O)N[C@@H](CC(=O)O)C(=O)N[C@@H](CCCNC(=N)N)C(=O)NCC [Peptide P-28420, [N—Me-Tyr^1, D-Ala^2, Gln^8, Orn^12, Abu^15, Orn^21, Nle^27, Asp^28]hGHRH(1-29)NH—CH2—CH3] (H-[NMeY][dA]DAIFTQSYR[Orn]VL[Abu]QLSAR[Orn]LLQDI[Nle]DR-NHEt)
Relative affinitiy (Binding potency) vs JI-38 [1]: 8.37

CCCC[C@H](NC(=O)[C@@H](NC(=O)[C@H](CC(=O)O)NC(=O)[C@H](CCC(N)=O)NC(=O)[C@H](CC(C)C)NC(=O)[C@H](CC(C)C)NC(=O)[C@H](CCCN)NC(=O)[C@H](CCCNC(=N)N)NC(=O)[C@H](C)NC(=O)[C@H](CO)NC(=O)[C@H](CC(C)C)NC(=O)[C@H](CCC(N)=O)NC(=O)[C@H](CC)NC(=O)[C@H](CC(C)C)NC(=O)[C@@H](NC(=O)[C@H](CCCN)NC(=O)[C@H](CCCNC(=N)N)NC(=O)[C@H](Cc1ccc(O)cc1)NC(=O)[C@H](CO)NC(=O)[C@H](CC(N)=O)NC(=O)[C@@H](NC(=O)[C@H](Cc1ccccc1)NC(=O)[C@@H](NC(=O)[C@H](C)NC(=O)[C@H](CC(=O)O)NC(=O)[C@@H](C)NC(=O)[C@H](Cc1ccc(O)cc1)NC)[C@@H](C)CC)[C@@H](C)O)C(C)C)[C@@H](C)CC)C(=O)N[C@@H](CC(=O)O)C(=O)N[C@@H](CCCNC(=N)N)C(=O)NCC [Peptide P-28421, [N—Me-Tyr^1, D-Ala^2, Orn^12, Abu^15, Orn^21, Nle^27, Asp^28]hGHRH(1-29)NH—CH2—CH3] (H-[NMeY][dA]DAIFTNSYR[Orn]VL[Abu]QLSAR[Orn]LLQDI[Nle]DR-NHEt)
Relative affinitiy (Binding potency) vs JI-38 [1]: 2.96

[N—Me-Tyr^1, Gln^8, Orn^12, Abu^15, Orn^21, Nle^27, Agm^29]hGHRH(1-29) ([NMeY]ADAIFTQSYR[Orn]VL[Abu]QLSAR[Orn]LLQDI[Nle]S[Agmatine]) [Peptide P-20373]
GH releasing potency relative to JI-38 (=1) ([2]; 15 min after): 0.23 | GH releasing potency relative to JI-38 (=1) ([2]; 30 min after): 0.88
